This note sets out measurements from US6949669B2, “Organic compounds” (Syngenta Crop Protection, Inc., priority 2000, dated 2005).

Holding throughout (format): in vivo
Test [1] concerns Amaranthus. As to the kind of experiment: Post-emergence herbicidal action (Example B2). Also noted: key: 1=total damage; 9=no action. To be noted: 1 kg/ha, post-emergence at 2- to 3-leaf stage, evaluated 2 to 3 weeks later, rating scale 1-9 (1=total damage, 9=no action). An excerpt: (§1) Post-emergence Herbicidal Action Monocot and dicot test plants are sown in standard soil in plastic pots. At the 2- to 3-leaf stage, the test plants are sprayed with test substances as an aqueous suspension [prepared from a wettable powder (Example F3, b) of WO 97/34485)] or as an emulsion [prepared from an emulsion concentrate (Example F1 c) of WO 97/34485)] in an optimal dosage (500 l of water/ha). The test plants are then cultivated in the greenhouse under optimum conditions. The test is evaluated 2 to 3 weeks later on a rating scale of 1-9 (1=total damage, 9=no action). Ratings of 1 to 4 (especially 1 to 3) denote good to very good herbicidal action.

Test [2] relates to Chenopodium. Description: Post-emergence herbicidal action (Example B2). As to conditions: 1 kg/ha, post-emergence at 2- to 3-leaf stage, evaluated 2 to 3 weeks later, rating scale 1-9 (1=total damage, 9=no action). Also on record: key: 1=total damage; 9=no action.
Source text: as §1

The subject of test [3] is Stellaria. Description: Post-emergence herbicidal action (Example B2). As to conditions: 1 kg/ha, post-emergence at 2- to 3-leaf stage, evaluated 2 to 3 weeks later, rating scale 1-9 (1=total damage, 9=no action).
Source text: as §1

A further test deals with Digitaria. Description: Pre-emergence herbicidal action (Example B1). Also noted: key: 1=total damage; 9=no action. As to conditions: 1 kg/ha, evaluated 4 weeks later, rating scale 1-9 (1=total damage, 9=no action). Here is the method:
(§2) Pre-emergence Herbicidal Action Monocot and dicot test plants are sown in standard soil in plastic pots. Immediately after sowing, the test substances are sprayed on as an aqueous suspension [prepared from a wettable powder (Example F3, b) of WO 97/34485)] or as an emulsion [prepared from an emulsion concentrate (Example F1 c) of WO 97/34485)] in an optimal dosage (500 l of water/ha). The test plants are then cultivated in the greenhouse under optimum conditions. The test is evaluated 4 weeks later on a rating scale of 1-9 (1=total damage, 9=no action). Ratings of 1 to 4 (especially 1 to 3) denote good to very good herbicidal action.

The subject of test [4] is Stellaria. Description: Pre-emergence herbicidal action (Example B1). Also on record: key: 1=total damage; 9=no action. As to conditions: 1 kg/ha, evaluated 4 weeks later, rating scale 1-9 (1=total damage, 9=no action). How it is done:
as §2

Test [5] relates to Amaranthus. As to the kind of experiment: Pre-emergence herbicidal action (Example B1). Also noted: key: 1=total damage; 9=no action. As to conditions: 1 kg/ha, evaluated 4 weeks later, rating scale 1-9 (1=total damage, 9=no action). Here is the method:
as §2

Test [6] deals with Chenopodium. Description: Pre-emergence herbicidal action (Example B1). Also on record: key: 1=total damage; 9=no action. As to conditions: 1 kg/ha, evaluated 4 weeks later, rating scale 1-9 (1=total damage, 9=no action). Here is the method:
as §2

For a further test, the system named is Setaria. Description: Pre-emergence herbicidal action (Example B1). Also on record: key: 1=total damage; 9=no action. To be noted: 1 kg/ha, evaluated 4 weeks later, rating scale 1-9 (1=total damage, 9=no action). Here is the method:
as §2

The next test has as its system Veronica. Description: Pre-emergence herbicidal action (Example B1). Also on record: key: 1=total damage; 9=no action. To be noted: 1 kg/ha, evaluated 4 weeks later, rating scale 1-9 (1=total damage, 9=no action). Here is the method: as §2
In a further test the test system is Panicum. As to the kind of experiment: Pre-emergence herbicidal action (Example B1). Also on record: key: 1=total damage; 9=no action. To be noted: 1 kg/ha, evaluated 4 weeks later, rating scale 1-9 (1=total damage, 9=no action). Here is the method:
as §2

For `COc1ccccc1OCC#Cc1cccc(CC#N)c1` [Compound 1.033], the “Postemergence test rating, Amaranthus” value in the test on Amaranthus [1] worked out at 4. The “Postemergence test rating, Chenopodium” value in the test with Chenopodium [2] was determined as 2. The “Postemergence test rating, Stellaria” value in the test on Stellaria [3] amounted to 2. Besides, in the test with Digitaria, the “Preemergence test rating, Digitaria” value stood at 1. In the test on Stellaria [4], the “Preemergence test rating, Stellaria” value was 1. Moreover, the “Preemergence test rating, Amaranthus” value in the test with Amaranthus [5] worked out at 1. Besides, the “Preemergence test rating, Chenopodium” value in the test on Chenopodium [6] worked out at 1. For the same compound, the “Preemergence test rating, Setaria” value in the test on Setaria turned out to be 2. Besides, the “Preemergence test rating, Veronica” value with Veronica was found to be 1. In addition, the “Preemergence test rating, Panicum” value in the test with Panicum stood at 2.
Regarding `COc1cc(C#N)ccc1OCC#Cc1ccc(Cl)cc1` [Compound 1.098], the “Postemergence test rating, Amaranthus” value with Amaranthus [1] turned out to be 1. Moreover, the “Postemergence test rating, Chenopodium” value in the test with Chenopodium [2] amounted to 1. Moreover, in the test with Stellaria [3], the “Postemergence test rating, Stellaria” value was 2. Besides, the “Preemergence test rating, Digitaria” value in the test on Digitaria came out at 3. For the same compound, the “Preemergence test rating, Stellaria” value in the test with Stellaria [4] worked out at 1. Moreover, the “Preemergence test rating, Amaranthus” value in the test with Amaranthus [5] is 1. Moreover, the “Preemergence test rating, Chenopodium” value in the test with Chenopodium [6] came to 1. The “Preemergence test rating, Setaria” value in the test with Setaria was 1. The “Preemergence test rating, Veronica” value in the test with Veronica worked out at 1. In addition, the “Preemergence test rating, Panicum” value in the test on Panicum is given as 1.
Regarding `COc1cc(C#N)ccc1OCC#Cc1cccc(Br)c1` [Compound 1.104], in the test with Amaranthus [1], the “Postemergence test rating, Amaranthus” value amounted to 2. Also, the “Postemergence test rating, Chenopodium” value in the test with Chenopodium [2] is 2. For the same compound, the “Postemergence test rating, Stellaria” value with Stellaria [3] is 3. The “Preemergence test rating, Digitaria” value in the test with Digitaria came out at 7. For the same compound, the “Preemergence test rating, Stellaria” value with Stellaria [4] came to 1. Besides, the “Preemergence test rating, Amaranthus” value in the test with Amaranthus [5] came out at 1. Also, the “Preemergence test rating, Chenopodium” value in the test with Chenopodium [6] was 1. For the same compound, the “Preemergence test rating, Setaria” value with Setaria is given as 4. Moreover, the “Preemergence test rating, Veronica” value in the test on Veronica came out at 1. The “Preemergence test rating, Panicum” value with Panicum was found to be 7.
As for `COc1cc(C#N)ccc1OCC#Cc1cccc(CC#N)c1` [Compound 1.109], the “Postemergence test rating, Amaranthus” value in the test on Amaranthus [1] is reported as 1. For the same compound, the “Postemergence test rating, Chenopodium” value in the test with Chenopodium [2] came to 4. Further, the “Postemergence test rating, Stellaria” value in the test with Stellaria [3] was determined as 2. In addition, the “Preemergence test rating, Digitaria” value with Digitaria is 1. Moreover, in the test with Stellaria [4], the “Preemergence test rating, Stellaria” value is recorded as 1. In the test on Amaranthus [5], the “Preemergence test rating, Amaranthus” value was found to be 1. In the test with Chenopodium [6], the “Preemergence test rating, Chenopodium” value is reported as 1. Moreover, the “Preemergence test rating, Setaria” value in the test on Setaria is 6. Further, in the test with Veronica, the “Preemergence test rating, Veronica” value was 1. Besides, in the test with Panicum, the “Preemergence test rating, Panicum” value is on record as 1.
Take `COc1cc(CC#N)ccc1OCC#Cc1cccc(CC#N)c1` [Compound 1.168]: in the test on Digitaria, the “Preemergence test rating, Digitaria” value came out at 3. In the test on Stellaria [4], the “Preemergence test rating, Stellaria” value turned out to be 1. In the test with Amaranthus [5], the “Preemergence test rating, Amaranthus” value worked out at 1. Besides, the “Preemergence test rating, Chenopodium” value in the test with Chenopodium [6] was 2. Further, in the test on Setaria, the “Preemergence test rating, Setaria” value is 4. The “Preemergence test rating, Veronica” value in the test on Veronica was determined as 4. Besides, the “Preemergence test rating, Panicum” value with Panicum stood at 1.
Consider `COc1cc([N+](=O)[O-])ccc1OCC#Cc1cccc(CC#N)c1` [Compound 1.198], for which, in the test with Amaranthus [1], the “Postemergence test rating, Amaranthus” value stood at 1. Besides, the “Postemergence test rating, Chenopodium” value in the test on Chenopodium [2] came out at 1. Besides, in the test with Stellaria [3], the “Postemergence test rating, Stellaria” value is reported as 3. Also, the “Preemergence test rating, Digitaria” value in the test with Digitaria was found to be 1. Also, the “Preemergence test rating, Stellaria” value in the test with Stellaria [4] was 1. Also, in the test with Amaranthus [5], the “Preemergence test rating, Amaranthus” value is reported as 1. The “Preemergence test rating, Chenopodium” value with Chenopodium [6] was found to be 1. Moreover, the “Preemergence test rating, Setaria” value in the test on Setaria is listed as 3. The “Preemergence test rating, Veronica” value in the test on Veronica worked out at 1. In addition, in the test on Panicum, the “Preemergence test rating, Panicum” value is given as 1.
With `COc1cc(C#N)ccc1OCC#Cc1cccc(Cl)c1` [Entry 1.095], the “Postemergence test rating, Amaranthus” value in the test with Amaranthus [1] was found to be 1. In addition, the “Postemergence test rating, Chenopodium” value in the test with Chenopodium [2] worked out at 2. Besides, the “Postemergence test rating, Stellaria” value in the test with Stellaria [3] was 2.
